Experimental findings from ChEMBL document CHEMBL1138593, “Structural modification of 3-arylisoquinolines to isoindolo[2,1-b]isoquinolinones for the development of novel topoisomerase 1 inhibitors with molecular docking study” (2009) are described below.

Active and inactive are the calls of the source. The calls are words filed in the database; no cut-off is given here.

Test [1] concerns A549. As to the kind of experiment: Cytotoxicity against human A549 cells by sulforhodamine B assay. In kind it is functional. A general note: Sulforhodamine B stains cellular protein and so reports cell mass.
The test system of test [2] is SK-OV-3. Briefly: Cytotoxicity against human SKOV3 cells by sulforhodamine B assay. Type of test: functional.
The subject of test [3] is HCT-15. Briefly: Cytotoxicity against human HCT15 cells by sulforhodamine B assay. Type of test: functional.
Test [4] is filed under the species Bos taurus. Briefly: Inhibition of calf thymus DNA topoisomerase 1 assessed as relaxation of supercoiled Escherichia coli pBR322 DNA at 100 ug/mL after 30 mins by agarose gel electrophoresis.

Turning to `COCOCc1cc(OC)c(OC)cc1-c1cc2ccccc2c(=O)[nH]1`, the results for the Activity in test [1], in test [2] and in test [3] were 16.04 µg/mL, 12.68 µg/mL and 24.7 µg/mL, respectively.

Consider `Cc1ccc2cc3n(c(=O)c2c1)Cc1ccccc1-3`, for which, in test [4], the “topoisomerase 1 inhibition (active/not active)” value was “Active”. Besides, the Activity was determined as 41.44 µg/mL in test [1], 48.92 µg/mL in test [2] and 35.27 µg/mL in test [3].

For `COc1ccc(COCc2ccccc2-c2cc3ccccc3c(=O)[nH]2)cc1`, the Activity in test [1] is 26.56 µg/mL; in test [2], 24.66 µg/mL; in test [3], 17.39 µg/mL.

`COc1ccc(-c2cc3cc(C)ccc3c(=O)[nH]2)c(CO)c1`: the Activity came to 19.43 µg/mL in test [1], 14.59 µg/mL in test [2] and 4.28 µg/mL in test [3].

Take `COc1ccc(-c2cc3ccc(C)cc3c(=O)[nH]2)c(CO)c1`: the Activity in test [1] was 10.11 µg/mL; in test [2], 9.69 µg/mL; in test [3], 7.39 µg/mL.

Take `CC[C@@]1(O)C(=O)OCc2c1cc1n(c2=O)Cc2cc3ccccc3nc2-1` [CAMPTOTHECIN]: in test [4], the “topoisomerase 1 inhibition (active/not active)” value is “Active”. For the same molecule, the Activity was 0.072 µg/mL in test [1], 0.035 µg/mL in test [2] and 0.089 µg/mL in test [3].

For `COc1ccc2c(c1)Cn1c-2cc2ccccc2c1=O`, in test [4], the “topoisomerase 1 inhibition (active/not active)” value was “Active”. In addition, the values for the Activity in test [1], in test [2] and in test [3] were 9.25 µg/mL, 12.01 µg/mL and 7.29 µg/mL, respectively.

As to `COc1cc(CO)c(-c2cc3cc(C)ccc3c(=O)[nH]2)cc1OC`, the Activity in test [1] was found to be 22.1 µg/mL; in test [2], 7.8 µg/mL; in test [3], 7.17 µg/mL.

Regarding `COc1cc2c(cc1OC)-c1cc3ccc(C)cc3c(=O)n1C2`, in test [4], the “topoisomerase 1 inhibition (active/not active)” value was “inactive”. Moreover, the Activity in test [1] is 24.13 µg/mL; in test [2], 7.23 µg/mL; in test [3], 6.56 µg/mL.

`COc1cc(CO)c(-c2cc3ccc(C)cc3c(=O)[nH]2)cc1OC`: the Activity in test [1] amounted to 15.15 µg/mL; in test [2], 0.67 µg/mL; in test [3], 22.45 µg/mL.

On to `COCOCc1cc(OC)ccc1-c1cc2ccccc2c(=O)[nH]1`, for which the figures for the Activity in test [1], in test [2] and in test [3] were 32.98 µg/mL, 17.06 µg/mL and 21.84 µg/mL, respectively.

Take `Cc1ccc2c(=O)[nH]c(-c3ccccc3CO)cc2c1`: the figures for the Activity in test [1], in test [2] and in test [3] were 3.66 µg/mL, 8.22 µg/mL and 3.34 µg/mL, respectively.

In the case of `O=c1c2ccccc2cc2n1Cc1ccccc1-2`, the “topoisomerase 1 inhibition (active/not active)” value in test [4] was “Active”. Also, the Activity in test [1] is 3.7 µg/mL; in test [2], 14.84 µg/mL; in test [3], 43.93 µg/mL.

Regarding `COc1cc2c(cc1OC)-c1cc3ccccc3c(=O)n1C2`, in test [4], the “topoisomerase 1 inhibition (active/not active)” value was “inactive”. Further, the values for the Activity in test [1], in test [2] and in test [3] were 36.75 µg/mL, 12.69 µg/mL and 9.12 µg/mL, respectively.

Regarding `COCOCc1cc(OC)ccc1-c1cc2cc(C)ccc2c(=O)[nH]1`, the Activity in test [1] is 80.22 µg/mL; in test [2], 31.26 µg/mL; in test [3] it was 29.26 µg/mL.

As to `COc1ccc2c(c1)Cn1c-2cc2cc(C)ccc2c1=O`, the “topoisomerase 1 inhibition (active/not active)” value in test [4] was “inactive”. The figures for the Activity in test [1], in test [2] and in test [3] were 5.95 µg/mL, 5.52 µg/mL and 8.78 µg/mL, respectively.

`COc1ccc(-c2cc3ccccc3c(=O)[nH]2)c(CO)c1`: the Activity was 3.65 µg/mL in test [1], 0.37 µg/mL in test [2] and 0.21 µg/mL in test [3].

As for `Cc1ccc2c(=O)n3c(cc2c1)-c1ccccc1C3`, the “topoisomerase 1 inhibition (active/not active)” value in test [4] was “Active”. Besides, the Activity in test [1] worked out at 15.94 µg/mL; in test [2], 44.12 µg/mL; in test [3], 46.35 µg/mL.

For `COCOCc1cc(OC)c(OC)cc1-c1cc2ccc(C)cc2c(=O)[nH]1`, the Activity was determined as 25.02 µg/mL in test [1], 28.22 µg/mL in test [2] and 31.13 µg/mL in test [3].

On to `Cc1ccc2cc(-c3ccccc3CO)[nH]c(=O)c2c1`, for which the Activity was determined as 12.78 µg/mL in test [1], 0.22 µg/mL in test [2] and 23.11 µg/mL in test [3].

On to `COc1ccc(COCc2ccccc2-c2cc3ccc(C)cc3c(=O)[nH]2)cc1`, for which the Activity in test [1] amounted to 3.33 µg/mL; in test [2], 4.76 µg/mL; in test [3], 4.15 µg/mL.

For `COCOCc1cc(OC)c(OC)cc1-c1cc2cc(C)ccc2c(=O)[nH]1`, the results for the Activity in test [1], in test [2] and in test [3] were 43.65 µg/mL, 34.54 µg/mL and 34.55 µg/mL, respectively.

On to `COc1ccc2c(c1)Cn1c-2cc2ccc(C)cc2c1=O`, for which the “topoisomerase 1 inhibition (active/not active)” value in test [4] is “inactive”. Also, the Activity came out at 45.12 µg/mL in test [1], 15.34 µg/mL in test [2] and 34.33 µg/mL in test [3].

`COCOCc1cc(OC)ccc1-c1cc2ccc(C)cc2c(=O)[nH]1`: the Activity is 66.52 µg/mL in test [1], 23.08 µg/mL in test [2] and 40.05 µg/mL in test [3].

With `COc1cc2c(cc1OC)-c1cc3cc(C)ccc3c(=O)n1C2`, in test [4], the “topoisomerase 1 inhibition (active/not active)” value was “inactive”. The Activity is 49.09 µg/mL in test [1], 36.15 µg/mL in test [2] and 34.98 µg/mL in test [3].

Take `COc1ccc(COCc2ccccc2-c2cc3cc(C)ccc3c(=O)[nH]2)cc1`: the Activity was 7.44 µg/mL in test [1], 2.37 µg/mL in test [2] and 13.27 µg/mL in test [3].

Take `O=c1[nH]c(-c2ccccc2CO)cc2ccccc12`: the Activity in test [1] was 6.89 µg/mL; in test [2] it was 21.98 µg/mL; in test [3] it was 3.88 µg/mL.

Take `COc1cc(CO)c(-c2cc3ccccc3c(=O)[nH]2)cc1OC`: the Activity in test [1] worked out at 7.32 µg/mL; in test [2], 12.58 µg/mL; in test [3], 19.68 µg/mL.
